Measurements from ChEMBL document CHEMBL1201862, “PubChem BioAssay data set” (2004).
Activity calls are given as the source filed them.

Key:
[1] = biological target: T1, Calpain-2 catalytic subunit (Sus scrofa, UniProt P43367); assay: pig calpain II inhibitor potency, dose response, biochemical, fluorogenic peptide substrate (AID 1420); format: functional
T1 sequence (P43367 whole entry): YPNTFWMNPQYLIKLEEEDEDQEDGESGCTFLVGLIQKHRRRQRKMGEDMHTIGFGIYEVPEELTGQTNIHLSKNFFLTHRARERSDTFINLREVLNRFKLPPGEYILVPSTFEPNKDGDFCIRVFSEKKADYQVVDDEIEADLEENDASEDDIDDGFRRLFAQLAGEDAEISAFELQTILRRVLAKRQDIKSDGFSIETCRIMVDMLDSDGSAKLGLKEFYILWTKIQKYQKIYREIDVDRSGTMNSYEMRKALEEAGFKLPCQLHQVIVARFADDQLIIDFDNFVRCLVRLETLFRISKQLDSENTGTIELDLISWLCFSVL

[2] = test system: Vero; assay: cells; format: functional; details: Chlorocebus sabaeus
[3] = growth suppression of PTEN-null colon cells, dose response, cell-based, HCT116 PTEN knockout (AID 1047); format: functional;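 note: HCT116 colon tumor cells with PTEN knocked out; cells exposed to compound for 60 hours before readout; potency for loss of cell viability measured by luminescence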
[4] = biological target: Genome polyprotein (dengue virus type 2, UniProt P29990); assay: Dengue-2 NS5 methyltransferase inhibitors, primary screen, biochemical, confirmation dose response (AID 588689); format: functional
Sequence of Genome polyprotein (P29990 2492-3391 limits assumed): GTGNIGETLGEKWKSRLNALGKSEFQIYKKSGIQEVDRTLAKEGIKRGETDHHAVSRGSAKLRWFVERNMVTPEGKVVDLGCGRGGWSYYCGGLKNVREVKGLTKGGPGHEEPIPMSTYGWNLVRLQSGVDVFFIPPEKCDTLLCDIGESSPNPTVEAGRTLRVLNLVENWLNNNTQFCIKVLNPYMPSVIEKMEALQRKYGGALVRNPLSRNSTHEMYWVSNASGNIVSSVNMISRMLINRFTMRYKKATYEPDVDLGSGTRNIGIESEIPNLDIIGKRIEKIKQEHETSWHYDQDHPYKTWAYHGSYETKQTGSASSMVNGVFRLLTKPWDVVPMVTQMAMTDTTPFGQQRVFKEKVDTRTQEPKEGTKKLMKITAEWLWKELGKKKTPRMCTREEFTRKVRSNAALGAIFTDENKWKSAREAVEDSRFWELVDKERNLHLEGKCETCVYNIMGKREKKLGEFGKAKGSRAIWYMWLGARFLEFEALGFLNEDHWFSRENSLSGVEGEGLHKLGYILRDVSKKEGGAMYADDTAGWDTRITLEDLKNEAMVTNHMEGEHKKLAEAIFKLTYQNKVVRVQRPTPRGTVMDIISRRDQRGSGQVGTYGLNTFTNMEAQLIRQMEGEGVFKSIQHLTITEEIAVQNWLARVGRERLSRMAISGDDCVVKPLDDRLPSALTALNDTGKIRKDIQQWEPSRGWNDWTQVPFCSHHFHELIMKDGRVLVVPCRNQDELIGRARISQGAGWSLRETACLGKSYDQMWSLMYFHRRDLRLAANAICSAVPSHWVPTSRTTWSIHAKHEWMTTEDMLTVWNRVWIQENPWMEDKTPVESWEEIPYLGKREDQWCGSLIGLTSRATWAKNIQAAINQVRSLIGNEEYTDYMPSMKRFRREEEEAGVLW

[5] = biological target: Nonstructural protein 1 (Influenza A virus, UniProt Q194T2); format: functional, Influenza A virus (A/California/07/2009(H1N1))
Sequence of Nonstructural protein 1 (Q194T2 whole entry, the tested form may be a part): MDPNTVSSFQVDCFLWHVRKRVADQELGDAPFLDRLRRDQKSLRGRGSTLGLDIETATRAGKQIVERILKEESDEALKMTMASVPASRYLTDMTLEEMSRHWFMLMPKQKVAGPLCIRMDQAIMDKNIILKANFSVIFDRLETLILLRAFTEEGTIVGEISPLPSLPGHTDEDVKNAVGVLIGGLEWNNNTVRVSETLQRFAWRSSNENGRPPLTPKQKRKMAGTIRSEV

[6] = biological target: T2, Carboxy-terminal domain RNA polymerase II polypeptide A small phosphatase 1 (Homo sapiens, UniProt Q9GZU7); assay: inhibitors of CTDSP1, concentration-response testing, biochemical assay, absorbance-based, actives from ultra-high-throughput screening (AID 540297); format: functional
T2 sequence (Q9GZU7 whole entry): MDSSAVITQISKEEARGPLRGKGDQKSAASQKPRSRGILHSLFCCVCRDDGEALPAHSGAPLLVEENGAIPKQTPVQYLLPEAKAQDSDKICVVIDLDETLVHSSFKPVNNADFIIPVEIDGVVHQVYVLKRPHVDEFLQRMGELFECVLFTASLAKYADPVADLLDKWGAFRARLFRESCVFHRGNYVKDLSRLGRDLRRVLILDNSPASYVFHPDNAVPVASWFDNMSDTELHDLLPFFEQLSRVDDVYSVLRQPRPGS

[7] = Shn3 3'UTR reporter inhibitors, dose response, cell-based, Clone20 osteoblasts, firefly luciferase, cherry-picked (AID 624132); format: functional;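 note: firefly luciferase luminescence from reporter carrying the Shn3 3'UTR in osteoblasts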
[8] = HepG2 cell cytotoxicity, dose response, cytotoxicity control for Shn3 inhibitor project, CellTiter-Glo, cherry-picked (AID 624134); format: functional, cell-based
[9] = control 3'UTR Renilla luciferase suppression, dose response, counter-screen for Shn3 inhibitor project, cell-based, Clone20-Shn3RL, cherry-picked (AID 624133); format: functional

With `COc1ccc(C(=O)CSc2nc(N)nc(SC)c2C#N)cc1` the IC50 [1] was 17.3 µM (not active).
In the case of `CCN(CC)CCNc1nc(-c2ccc(OC)cc2)c(-c2ccc(OC)cc2)s1`, the CC50 [2] is reported as > 25 µM (active).
In the case of `CCN1CCN(c2cc(C)c3cc(NC(=O)c4ccc5c(c4)OCO5)ccc3n2)CC1`, the EC50 [3] is reported as 25.1 µM (active) and the CC50 [2] is reported as > 25 µM (active).
In the case of `COc1cc(C(C2C(=O)CC(C)(C)CC2=O)C2C(=O)CC(C)(C)CC2=O)cc(OC)c1OC`, the IC50 [4] is reported as 87.7 µM (active).
In the case of `Oc1ccc2ccccc2c1N=Nc1ccc(F)cc1`, the IC50 [5] is reported as 16.2 µM (active).
In the case of `Cc1noc(-c2ccc(Cl)cc2)c1C(=O)ON=C(N)c1ccc(C(C)(C)C)cc1`, the CC50 [2] is reported as 18.8 µM (active).
For `C/C=C\C=C\C(=O)N1CC2(CC(c3cccc(NC(=O)CC)c3)=NO2)C[C@H]1C(N)=O` (stereo partly specified), the IC50 [6] was 7.57 µM (active).
With `O=C(CCC1N=C2c3ccccc3N=C(SCC(=O)NCc3ccco3)N2C1=O)NCc1ccco1` (stereo unspecified) the IC50 [6] was 5.31 µM (active).
For `CC(Sc1nc2ccccc2c(=O)n1C)C(=O)Nc1ccc2c(c1)OCCO2` (stereo unspecified), the AC50 [7] was 1.94 µM (active), the AC50 [8] was > 70 µM (inactive) and the AC50 [9] was 9.21 µM (active).
With `Cc1ccc(NC(=O)CN2CCC(Cc3ccccc3)CC2)cc1S(=O)(=O)N(C)C` the IC50 [1] was 27.3 µM (not active).
With `Cc1nn(Cc2cccc(C(=O)NC3CCCCC3)c2)c(C)c1Cl` the CC50 [2] was > 25 µM (active).
With `CCCCNC(=O)c1ccccc1C(=O)NCCCC` the IC50 [1] was < 0.4 µM (not active).
In the case of `CCOC(=O)C1(C)C(N=Nc2cccc(Cl)c2)=C(O)C(=O)N1c1ccccc1` (stereo unspecified), the IC50 [4] is reported as 18.4 µM (active).
